Test results: US20120156715A1, “Environmental Sentinel Biomonitor System (ESB)” (priority 2010, published 2012)
Read-outs that look alike come from different tables or passages of the source.

Experiments:
RTgill-W1 cells [1] = assay type: cell-based, rainbow trout, Oncorhynchus mykiss
RTgill-W1 cells [2] = assay: Long-term storage testing of RTgill-W1 fluidic biochips with PCP exposure (ECIS); assay type: cell-based, rainbow trout, Oncorhynchus mykiss; conditions: 9.4 μM
Experimental: The following description provides an example of a method for long-term testing of RTgill-W1 fluidic biochips according to an embodiment of the invention. In order to study the effects of cold storage with no media replenishment on the viability and sensitivity of the RTgill-W1 cells, fluidic biochips are seeded, held at 20° C., and media changes are performed on days 4 and 7 as described above, then held at 6° C. with no media replenishment for up to one year. Three chips are removed for viability assessment and ECIS testing using the 9.4 μM detection level for PCP (FIG. 1) at 4, 8, 12, 16, 20, 24, 32, 38, and 52 weeks and the chemical exposure procedure described above.
The following description provides an example of a method for statistical analysis according to an embodiment of the invention. A curve discrimination program using MATLAB (available from The MathWorks, Inc., Natick, Mass.) is used to perform the statistical analysis. […] This program analyzes impedance data from control and toxicant-exposed cells every minute during a 60 minute window. The overall difference between the two groups of curves is compared at each time point, and the difference between their averages is assessed relative to the within-group variability. A confidence level of […] (p<0.001) is used to establish statistical significance. Functional data analysis techniques are used to extend the standard single time point analysis of variance approach to a curve consisting of approximately 60 points. The lowest toxicant concentrations that cause a significant change in impedance in at least ten consecutive time intervals over a 60 minute period are reported as the detection levels in FIG. 1.
Unfed RTgill-W1 cells are maintained at 6° C. for different durations and subsequently tested with PCP exposures at 9.4 μM. […] The line with triangle data points and the line with square data points show, respectively, 1-hour and 4-hour average of response difference between the control and treatment channels at each respective storage time for 3 replicate fluidic biochips. Significance at each time point (p<0.001) is depicted by an * and requires a positive detection for all 3 replicate chips using the curve discrimination program. […] If the impedance patterns shown for the 12° C. and 20° C. chips are predictive indicators of the impedance patterns of the 6° C. chips, the 6° C. chips may remain viable for approximately 18 months, but most likely not beyond 2 years of storage.

[3] = one hour exposure, MEG = Military Exposure Guideline, HLC = Human Lethal Concentration, ECIS impedance

| Compound | change in impedance compared to controls (RTgill-W1 cells [1]) | concentration at which the chemical is detected, relative to MEG and HLC (RTgill-W1 cells [1]) | chips in which the chemical is detected (RTgill-W1 cells [1]; at levels above the HLC) | concentration at which the chemical is detected, relative to MEG and HLC (RTgill-W1 cells [1]; [3]) | also measured |
| --- | --- | --- | --- | --- | --- |
| [N-]=[N+]=[N-] [azide] | significant decrease | between the MEG and the HLC |  |  |  |
| O=S(=O)([O-])[O-].[Tl+].[Tl+] [thallium, thallium sulfate] |  |  | 3 out of 3 | above the HLC |  |
| O=S(=O)([O-])[O-].[Cu+2] [copper, copper sulfate] | increased impedance | between the MEG and the HLC |  |  |  |
| mercuric chloride [mercury] | significant decrease | between the MEG and the HLC |  |  |  |
| CNC(=O)O/N=C/C(C)(C)SC [aldicarb] |  |  | 3 out of 3 | above the HLC |  |
| COP(=S)(OC)Oc1ccc([N+](=O)[O-])cc1 [methyl parathion] | significant decrease | between the MEG and the HLC |  |  |  |
| CN1CCCC1c1cccnc1 (stereo not drawn) [nicotine] |  | above the HLC |  |  | chips in which the chemical is detected (RTgill-W1 cells [1]): 3 out of 3 |
| Oc1ccccc1 [phenol] |  | above the HLC |  |  | chips in which the chemical is detected (RTgill-W1 cells [1]): 3 out of 3 |
| Oc1c(Cl)c(Cl)c(Cl)c(Cl)c1Cl [pentachlorophenate, sodium pentachlorophenate] |  |  |  | between the MEG and the HLC | responsiveness after one year storage (RTgill-W1 cells [2]; 1 hour and 4 hour exposures, one year storage at 6° C.): significantly responsive; response to PCP exposure (RTgill-W1 cells [2]; chips stored at 6° C. unfed, all storage time points indicated): positive response; significance of response, 4 hours exposure (RTgill-W1 cells [2]; storage at 6° C., additional at 140 and 266 days, p<0.001, 3 replicate chips): significant responses; significance of response, 1 hour exposure (RTgill-W1 cells [2]; storage at 6° C., time points of 14-114 days and 364 days, p<0.001, 3 replicate chips): significant; detection level (RTgill-W1 cells [1]; lowest concentration causing significant impedance change in at least ten consecutive time intervals over 60 minutes): 9.4 µM; change in impedance compared to controls (RTgill-W1 cells [1]; one hour exposure, p<0.001): significant decrease |
| Cl.N [ammonia, ammonium chloride] |  |  |  |  | change in impedance compared to controls (RTgill-W1 cells [1]; one hour exposure, p<0.001): significant decrease |
| sodium arsenite [arsenic] | significant decrease | between the MEG and the HLC |  |  |  |
| O=C([O-])CF.[Na+] [fluoroacetate, sodium fluoroacetate] |  | above the HLC |  |  | chips in which the chemical is detected (RTgill-W1 cells [1]): 3 out of 3 |
| C=CC#N [Acrylonitrile, acrylonitrile] |  |  | 3 out of 3 | above the HLC |  |
| COP(N)(=O)SC (stereo not drawn) [methamidophos] |  |  | 3 out of 3 | above the HLC |  |
| C[n+]1ccc(-c2cc[n+](C)cc2)cc1 [paraquat, paraquat dichloride] |  |  | 3 out of 3 | above the HLC |  |
| Cc1ccccc1 [toluene] | significant decrease | between the MEG and the HLC |  |  |  |
